According to US20220213178A1, “Enhanced Transfection” (The University of Nottingham, priority 2019, published 2022):

Assays:
Assay type in all cases: cell-based
[1] = test system: LCL lymphoblastoid human B cells; experiment: GET transfection of pCMV-Gluc pDNA into LCL cells (FIG. 3); conditions: 20,000 cells, 24 hours post-transfection of 1 μs pCMV-Gluc pDNA with GET; short exposures of TPA
Method: Experiment on 20,000 LCL lymphoblastoid human B cells, measured at 24 hours post-transfection of […] pCMV-Gluc pDNA with GET. T=TPA(μM), S=SAHA (μM). TPA is shown to have the most effect on transfection in LCL cells, and it is enhanced by SAHA. There is effectively no transfection without these modulators.

[2] = test system: RAW264.7 mouse macrophage cells; experiment: GET transfection of pCMV-Gluc pDNA into RAW264.7 cells (FIG. 2); conditions: 20,000 cells, 24 hours post-transfection of 1 μg pCMV-Gluc pDNA with GET
Method: Experiment on 20,000 RAW264.7 mouse macrophage cells, measured at 24 hours post-transfection of 1 μg pCMV-Gluc pDNA with GET. T=TPA(μM), S=SAHA (μM).

[3] = test system: T2 hybrid human T/B cells; experiment: GET transfection of pCMV-Gluc pDNA into T2 cells (FIG. 1); conditions: 20,000 cells, 24 hours post-transfection of 1 μg pCMV-Gluc pDNA with GET
Method: Experiment on 20,000 T2 hybrid human T/B cells, measured at 24 hours post-transfection of 1 μg pCMV-Gluc pDNA with GET. T=TPA(μM), S=SAHA (μM). TPA is shown as the major effect on transfection efficiency in T2 cells.

Row | SMILES | transfection of LCL cells (Gluc) [1] | transfection of RAW264.7 cells (Gluc) [2] | transfection of T2 cells (Gluc) [3]
1 | O=C(CCCCCCC(=O)Nc1ccccc1)NO [SAHA, suberoylanilide hydroxamic acid] | significantly enhances transfection | significantly enhances transfection | 
2 | CCCCCCCCCCCCCC(=O)O[C@@H]1[C@@H](C)[C@@]2(O)[C@@H](C=C(CO)C[C@]3(O)C(=O)C(C)=C[C@@H]23)[C@@H]2C(C)(C)[C@]12OC(C)=O [TPA, phorbol 12-myristate 13-acetate] | significantly enhances transfection |  | significantly enhances transfection
